Results: patent US20240409878A1, “SYSTEM AND METHOD FOR PRESERVING ALGAE” (Macro Oceans Inc., priority 2023, published 2024)

System: algae sample
Assay: preservation of an algae sample in a preserving solution
Design: species or system algae (e.g., sugar kelp, ribbon kelp, bull kelp, brown alga)
Details: for preservation of the algae by the preserving solution: for the target preserving duration; for critical preservation solution concentration: temperature excursions between 0° F. and 140° F., wet mass basis relative to algae mass
Source text: The critical preservation solution concentration can depend on the amount of time the algae sample is to be preserved for, a preservation temperature, an algae species (or other taxonomical rank such as phylum, class, order, family, genus, intermediate ranks therebetween associated with the algae), humidity, moisture content, wet mass content of the algae sample (e.g., composition of the wet mass of the algae sample), dry mass content of the algae sample (e.g., composition of the dry mass of the algae sample), and/or other suitable. […] However, other critical values can be determined and/or arrived at (e.g., by controlling temperature excursions particularly high temperature range, for different types of algae, using a mixture of preserving agents to reduce the concentration of any single preserving agent, based on the amount of time to preserve the algae, etc.).
Preserving the received algae sample S300 preferably functions to extend a lifetime of the algae sample without significant degradation of the algae sample and/or products thereof or derived therefrom. S300 can preserve an as received algae sample (e.g., from S100, fresh harvested algae sample, etc.), a processed algae sample (e.g., from S200, an algae sample that was received after one or more processing steps such as in S200 or S400 has been performed, etc.), a previously preserved algae sample (e.g., preserved according to S300, preserved in a manner different from S300, dried algae sample, etc.), and/or any suitable algae sample.
The algae sample is typically not agitated (e.g., mixed) during (e.g., throughout) preservation (e.g., to simplify the preservation process). Alternatively stated, the algae sample is preferably mixed at most only once (e.g., at the beginning of S300 to homogenize the preserving solution and algae sample) and remains unmixed thereafter. However, the algae sample can be agitated during preservation (e.g., according to a schedule, at predetermined times, at a predetermined frequency, etc.).
The algae sample is typically preserved at approximately room temperature (e.g., an ambient temperature of an environment the algae sample is stored at). For instance, the algae sample can be preserved at a temperature between about 50° F. to 110° F. However, the algae sample can be stored at an elevated temperature (e.g., >110° F.), at a refrigeration temperature (e.g., 30-50° F.), freezing temperature (e.g., <about 30° F.), and/or at any suitable temperature. In some variants, the preserved algae sample can undergo temperature excursions as cold as about 0° F. and as high as 140° F. However, additionally or alternatively, the temperature can be controlled to within a target temperature range (e.g., a preservation temperature, a preservation temperature excursion range, etc.).
The algae sample is typically not fully sealed during preservation (e.g., evaporation of solvent, preservative, etc. can occur such as because the sample is loosely covered). […] For example, the algae sample can be preserved in a container where a lid is placed on the container to close the container but where the lid need not form a seal (e.g., is not a hermetic lid).

Compound | preservation duration before product degradation, mold growth, etc. was detected (5% alcohol solution, target about 1 year of preservation) | preservation of the algae by the preserving solution (less than 8% alcohol (e.g., 1%, 3%, 5%)) | critical preservation solution concentration (preserve for 2 months or less) | critical preservation solution concentration (preserve for 12 months or less) | preservation of the algae by the preserving solution (less than 9% carbonate (e.g., 5%)) | preservation of the algae by the preserving solution (less than 0.5% benzoate (e.g., 0.1%))
CCO [alcohol] | about 2 months | did not preserve the algae | at least 5 wt % | at least 8 wt % |  | 
O=C([O-])[O-].[Na+].[Na+] [sodium carbonate] |  |  | ≥ 9 wt % |  | did not preserve the algae | 
benzoate |  |  |  |  |  | did not preserve the algae
